Measured values as given in paper PMC8591608, “DNDI-6148: A Novel Benzoxaborole Preclinical Candidate for the Treatment of Visceral Leishmaniasis” (Journal of Medicinal Chemistry, 2021).
Where “and” joins values, the source holds several entries; their conditions need not be identical. Equal entries are not always repeated.

Assays:
[1] = tested on: L. infantum; assay: L. infantum mouse model of VL; format: in vivo
[2] = target: CYP1A2 (Homo sapiens, UniProt P05177); assay: CYP inhibition, CYP1A2; format: in vitro ADME; conditions: human liver microsomes
Method: The study was conducted by WuXi AppTec, Co., China, using the time-dependent (TDI) method. […] Following incubation with substrates (phenacetin for 1A2, diclofenac for 2C9, S-(+) mephenytoin for 2C19, dextromethorphan for 2D6, and midazolam or testosterone for 3A4), reactions were stopped by adding ice-cold acetonitrile, the samples were analyzed for the formation of metabolites by LC-MS/MS, and the percentage of inhibition was determined.

[3] = Plasma-protein binding, dog; format: in vitro ADME; conditions: Beagle, pH 7.4
Method: (§1) Tests were conducted by WuXi AppTec, Co., China, using the equilibrium dialysis method and a 96-well plate format. The test compound (at 2 μM, in triplicate) in solution in plasma (Balb/c mouse, golden (Syrian) hamster, Sprague-Dawley rat, Beagle dog or human) was dialyzed against 100 mM phosphate-buffered saline (pH 7.4) on a rotating plate incubated for 6 h at 37 °C. Following the precipitation of protein with acetonitrile or acetonitrile/methanol containing both 1% phosphoric acid, the amount of compound present in each compartment was quantified by LC-MS/MS.

[4] = Plasma-protein binding, human; format: in vitro ADME; conditions: pH 7.4
Method: as §1

[5] = Plasma-protein binding, mouse; format: in vitro ADME; conditions: Balb/c, pH 7.4
Method: as §1

[6] = Plasma-protein binding, hamster; format: in vitro ADME; conditions: golden (Syrian), pH 7.4
Method: as §1

[7] = Liver microsome stability, rat; format: in vitro ADME; conditions: Sprague-Dawley, rat liver microsomes, pH 7.4
Method: Tests were performed by WuXi AppTec, China. Test compounds (at 1 μM) or positive controls (testosterone, propafenone, and diclofenac) were incubated at 37 °C with liver microsomes from Balb/c mouse, golden (Syrian) hamster, Sprague-Dawley rat, Beagle dog, or human in the presence of a NADPH regenerating system and phosphate buffer (100 mM, pH 7.4) at 0.4 or 0.8 mg/mL microsomal protein. The samples were removed at time intervals from 0 to 60, 90, or 120 min and immediately mixed with cold methanol supplemented or not with acid (3% formic acid) and centrifuged prior to analysis by LC-MS/MS using tolbutamide or propranolol as internal standards.

[8] = Hepatocyte stability, rat; format: in vitro ADME; conditions: Sprague-Dawley, cryopreserved rat hepatocytes
Method: (§2) Tests were performed by WuXi AppTec, China. Following a viability check of cryopreserved hepatocytes from Sprague-Dawley rat, Beagle dog, or human, test compounds (at 1 μM) or positive controls 7-ethoxycoumarin and 7-hydroxycoumarin (at 3 μM) were incubated at 37 °C, 5% CO2 with hepatocytes in Williams’ Medium E. Following incubation of 15, 30, 60, 90, 120, 180, and 240 min, reactions were stopped by the addition of acetonitrile, the samples were centrifuged, and LC-MS/MS analysis was conducted using tolbutamide as an internal standard.

[9] = Hepatocyte stability, dog; format: in vitro ADME; conditions: Beagle, cryopreserved dog hepatocytes
Method: as §2

[10] = Hepatocyte stability, human; format: in vitro ADME; conditions: cryopreserved hepatocytes
Method: as §2

[11] = tested on: wild-type T. brucei trypanosomes; assay: Drug sensitivity, wild-type T. brucei; format: cell-based; conditions: Trypanosoma brucei
Method: (§3) The clonal L. donovani cell line LdBOB (derived from MHOM/SD/62/1S-CL2D) was grown as promastigotes at 28 °C, as described previously. Bloodstream form T. brucei MiTat 1.2 clone 221a and its derived subline, 2T1, were cultured at 37 °C in the presence of 5% CO2 in HMI9-T medium, as described previously. T. brucei cell lines overexpressing CPSF3 and overexpressing a mutated version of CPSF3 (Asn232His) were generated as part of a previous study and cultured as described.[19]
(§4) Drug sensitivity assays with wild-type and transgenic T. brucei and L. donovani cell lines were carried out as previously described.[31],[32]

[12] = tested on: trypanosomes overexpressing the wild-type version of CPSF3; assay: Drug sensitivity, T. brucei overexpressing CPSF3; format: cell-based
Method: as §3, §4

[13] = tested on: CPSF3-overexpressing L. donovani promastigotes; assay: Drug sensitivity, CPSF3-overexpressing L. donovani promastigotes; format: cell-based; conditions: Leishmania donovani
Method: as §3
L. donovaniCPSF3 gene (LdBPK_343210.1) was custom synthesized by GeneArt and ligated into the pIR1SAT vector via BglII restriction sites. Using the Q5 mutagenesis kit (NEB) and the pIR1SAT-LdCPSF3^WT construct as a template, mutations encoding A655C and Asn219His change to CPSF3^WT were introduced. Mutations were introduced using the specific primers 5′-GAGTACACGGCATCCGC-3′ and 5′-[…]-3′ and as per manufacturers’ instructions. Wild-type and mutated pIR1SAT constructs were digested with SwaI and transfected into L. donovani promastigotes, as previously described. Resistant clones were selected with nourseothricin (100 μg/mL), and two clones per transfection were selected for further study.
as §4

[14] = tested on: L. donovani clones, CPSF3 Asn219His; assay: Drug sensitivity, L. donovani CRISPR-Cas9 edited CPSF3 Asn219His; format: cell-based; conditions: listed as DNDI-6148
Method: (§5) A cell line constitutively expressing Cas9 and T7 RNA polymerase was generated by transfecting 4 × 10^7 promastigotes with the pTB007 vector (10 μg), as previously described.[29] Expression of Cas9 in selected clones was confirmed by western blotting (Figure S1). In addition, the CRISPR-Cas9 system in these parasites was confirmed as functional following the successful tagging of the flagellar protein PF16 with mNeonGreen, as previously described.[29]
(§6) To introduce specific mutations into CPSF3, 3 × 10^6 promastigotes expressing Cas9 and T7 RNA were resuspended in a 110 μL of Human T-Cell Nucleofector reagent and transfected with 18 μL of sgRNA and 4 μg of template using the Amaxa Nucleofector electroporator (program V-033). sgRNA was produced according to the previously established protocol from the Gluenz lab,[30] in which the scaffold primer G00 and a gene-specific forward primer (FwsgRNA) were used (Table S1). Twenty-four hours following transfection, DNDI-6148 was added to cultures at 6 μM. Drug-selected populations were cloned by limiting dilution, EC50s were determined, and genomic DNA was extracted. The CPSF3 gene from CRISPR-edited parasites was amplified by PCR, and the resulting products were sequenced.
as §4

[15] = tested on: L. donovani clones, CPSF3 Asn219His/Glu229Val; assay: Drug sensitivity, L. donovani CRISPR-Cas9 edited CPSF3 Asn219His/Glu229Val; format: cell-based
Method: as §5, §6, §4

[16] = in vivo; conditions: both, Sprague-Dawley, rat

CYP1A2, sequence (P05177 whole entry): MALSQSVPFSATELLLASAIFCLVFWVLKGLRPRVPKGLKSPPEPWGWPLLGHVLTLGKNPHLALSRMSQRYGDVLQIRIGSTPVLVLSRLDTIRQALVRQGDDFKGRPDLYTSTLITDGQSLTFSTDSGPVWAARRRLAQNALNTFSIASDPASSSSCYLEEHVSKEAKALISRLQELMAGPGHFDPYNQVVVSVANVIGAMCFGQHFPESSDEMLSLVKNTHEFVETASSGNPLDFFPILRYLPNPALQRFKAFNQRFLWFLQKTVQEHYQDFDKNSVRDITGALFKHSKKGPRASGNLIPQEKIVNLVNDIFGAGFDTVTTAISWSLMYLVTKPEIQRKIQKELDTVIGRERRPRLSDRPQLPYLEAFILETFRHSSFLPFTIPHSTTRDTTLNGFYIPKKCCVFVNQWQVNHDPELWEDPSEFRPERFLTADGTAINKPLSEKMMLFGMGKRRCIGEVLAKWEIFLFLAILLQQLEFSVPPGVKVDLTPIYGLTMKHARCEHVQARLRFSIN

Row | Structure (SMILES) | reduction in liver parasite burden following 5 days of p.o. dosing BID, L. infantum ([1]; 25 mg/kg BID) [%] | reduction in liver parasite burden following 5 days of p.o. dosing BID, L. infantum ([1]; 50 mg/kg BID) [%] | IC50 [2] [µM] | fraction unbound at 6 h, 2 µM [3] | fraction unbound at 6 h, 2 µM [4] | fraction unbound at 6 h, 2 µM [5] | fraction unbound at 6 h, 2 µM [6] | microsomal CLint at 1 μM [7] [µL/min/mg] | hepatocyte CLint at 1 μM [8] [µL/min/1e6 cells] | hepatocyte CLint at 1 μM [9] [µL/min/1e6 cells] | hepatocyte CLint at 1 μM [10] [µL/min/1e6 cells] | EC50 ([11]; Figure 2A) [µM] | EC50 ([11]; Figure 2B) [µM] | EC50 ([12]; Trypanosoma brucei) [µM] | fold less sensitive compared to wild-type ([12]; trypanosomes overexpressing wild-type CPSF3) [fold] | EC50 [13] [µM] | Fold change (relative to WT) [14] | Fold change (relative to WT) ([15]; CRISPR-Cas9 edited Asn219His/Glu229Val, listed as DNDI-6148) [fold] | EC50 ([15]; Leishmania donovani) [µM] | NOAEL at 14 days [16] [mg/kg]
1 | Cc1c(C(=O)Nc2ccc3c(c2)B(O)OC3)nnn1-c1ccccn1 [Compound 23, N-(1-Hydroxy-1,3-dihydrobenzo[c][1,2]oxaborol-6-yl)-5-methyl-1-(pyridin-2-yl)-1H-1,2,3-triazole-4-carboxamide] | 96.1 | 98.6 | > 50 | 0.13 | 0.08 | 0.07 | 0.12 | < 11.9 | 0.7 | 2.4 | 0.5 | 0.047 ± 0.0009 | 0.067 ± 0.001 | 0.172 ± 0.003 | 2.9 | 0.508 ± 0.013 | 3.0 fold and 3 fold | > 5 | 2830 ± 139 | 
2 | Cc1c(-c2ccccn2)coc1C(=O)Nc1ccc2c(c1)B(O)OC2 [Compound 28, N-(1-Hydroxy-1,3-dihydrobenzo[c][1,2]oxaborol-6-yl)-3-methyl-4-(pyridin-2-yl)furan-2-carboxamide] |  |  |  |  |  |  |  |  |  |  |  |  |  |  |  |  |  |  |  | < 12.5
